Test results as given in US20210246122A1, “Triazine Compounds and Uses Thereof” (Aduro Biotech, Inc., priority 2018, published 2021).

Each compound was assayed against T1, Human cGAS amino acids 155-522 (Homo sapiens, UniProt Q8N884) (assay: cGAS activity assay (DNA-activated cGAS, remaining ATP measured by Kinase-Glo Max luciferase assay)). Settings: 300 nM purified cGAS, 1 μM dsDNA, 250 μM ATP, 100 μM GTP, 37° C. for 1.25 hours.
T1 construct: hexahistidine tag (N, cleaved yes); made in house; host or cells: E. coli BL21 DE3 Rosetta 2
Type: biochemical
Procedure: IC50 values were determined as follows:
Human cGAS sequence encoding amino acids 155-522 was cloned into a pET (EMD Millipore) based expression plasmid. The resulting construct contained a tandem N-terminal hexahistidine tag, maltose binding protein fusion followed by a tobacco etch virus protease cleavable linker preceding cGAS amino acids 155-522.
Construct sequence: Amino acids 155-522, Human cGAS
Protein was expressed and purified from E. coli BL21 DE3 Rosetta 2 (EMD Millipore) cells using standard techniques. Cells were grown in 2× yeast extract tryptone medium and expression was initiated via the addition of isopropyl β-D-1-thiogalactopyranoside. Expression proceeded overnight at 18° C. Cells were harvested by centrifugation and subsequently lysed via sonication. Insoluble fraction was removed by centrifugation. Maltose binding protein (MBP) fusion proteins were purified on a dextrin sepharose column (GE Healthcare) and the MBP tag was removed using tobacco etch virus protease overnight during dialysis. Protein was further purified on a heparin column (GE Healthcare) and eluted using a NaCl gradient. Column fraction were pooled and further purified on a Superdex 75 gel filtration column (GE Healthcare). Protein was quantified using 280 nm absorbance. Protein was then flash frozen in liquid nitrogen and stored at −80° C. until use.
Potential antagonists were diluted in 100% dimethyl sulfoxide and added to the reaction. Final dimethyl sulfoxide concentration was 5%. The compounds were tested from 1 μM with either 3- or 4-fold serial dilutions down to 0.000051 or 0.000004 μM respectively.
Two complementary DNA oligos (IDT DNA) were annealed by slow cooling from 95° C. The resulting double stranded DNA was used to activate cGAS.
Reactions were performed at 37° C. for 1.25 hours. Reaction buffer: 20 mM Tris HCl pH 9, 100 mM NaCl, 5 mM MgCl2, 0.1 mg/ml bovine gamma globulin, 250 μM adenosine triphosphate, 100 μM guanosine triphosphate, 0.5 mM Tris(2-carboxyethyl)phosphine hydrochloride, 1 μM double stranded DNA and 300 nM purified cGAS protein.
Reactions were stopped and ATP levels in the reaction were measured using a luciferase based assay. Promega Kinase-Glo Max Assay. Luminescence was measured on a plate reader (Molecular Devices). Values were normalized to control wells lacking compound.

T1 sequence (Q8N884 157-522): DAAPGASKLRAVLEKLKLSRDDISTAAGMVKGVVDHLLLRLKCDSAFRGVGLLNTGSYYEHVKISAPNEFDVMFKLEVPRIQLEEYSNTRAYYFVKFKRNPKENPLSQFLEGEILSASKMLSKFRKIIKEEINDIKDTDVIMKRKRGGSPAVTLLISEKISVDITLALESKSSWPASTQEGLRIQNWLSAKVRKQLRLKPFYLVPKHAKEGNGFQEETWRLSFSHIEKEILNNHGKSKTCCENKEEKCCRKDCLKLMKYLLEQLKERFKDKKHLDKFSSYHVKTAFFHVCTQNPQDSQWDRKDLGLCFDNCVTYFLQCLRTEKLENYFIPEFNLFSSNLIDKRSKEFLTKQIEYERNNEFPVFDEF

Row | IC50 [µM] | SMILES
1 | > 250 | COCCNc1nc(Nc2cccc(CN3CCN(C(=O)c4nccnc4O)CC3)c2)nc(N[C@@H](Cc2ccc(C#N)cc2)C(=O)OC)n1 [TA1033, methyl (S)-3-(4-cyanophenyl)-2-((4-((3-((4-(3-hydroxypyrazine-2-carbonyl)piperazin-1-yl)methyl)phenyl)amino)-6-((2-methoxyethyl)amino)-1,3,5-triazin-2-yl)amino)propanoate]
2 | > 250 | COCCNc1nc(Nc2cccc(CN3CCNCC3)c2)nc(N[C@@H](Cc2ccc(C#N)cc2)C(=O)OC)n1 [TA1031, methyl (S)-3-(4-cyanophenyl)-2-((4-((2-methoxyethyl)amino)-6-((3-(piperazin-1-ylmethyl)phenyl)amino)-1,3,5-triazin-2-yl)amino)propanoate]
3 | > 250 | COC(=O)[C@H](Cc1ccc(C#N)cc1)Nc1nc(Nc2cccc(CN3CCN(C=O)CC3)c2)nc(OC)n1 [TA1077, methyl (S)-3-(4-cyanophenyl)-2-((4-((3-((4-formylpiperazin-1-yl)methyl)phenyl)amino)-6-methoxy-1,3,5-triazin-2-yl)amino)propanoate]
4 | > 250 | CNC(=O)[C@H](Cc1ccc(C#N)cc1)Nc1nc(NCc2nc3cc(F)ccc3[nH]2)nc(Nc2cccc(CN3CCN(C=O)CC3)c2)n1 [TA1030, (S)-3-(4-cyanophenyl)-2-((4-(((5-fluoro-1H-benzo[d]imidazol-2-yl)methyl)amino)-6-((3-((4-formylpiperazin-1-yl)methyl)phenyl)amino)-1,3,5-triazin-2-yl)amino)-N-methylpropanamide]
5 | > 250 | COC(=O)[C@H](Cc1ccc(C#N)cc1)Nc1nc(Nc2cccc(CN3CCNCC3)c2)nc(OC)n1 [TA1028, methyl (S)-3-(4-cyanophenyl)-2-((4-methoxy-6-((3-(piperazin-1-ylmethyl)phenyl)amino)-1,3,5-triazin-2-yl)amino)propanoate]
6 | > 250 | COC(=O)[C@@H](Cc1ccc(C#N)cc1)Nc1nc(NCc2nc3cc(F)ccc3[nH]2)nc(Nc2cccc(CN3CCNCC3)c2)n1 [TA1019, methyl (R)-3-(4-cyanophenyl)-2-((4-(((5-fluoro-1H-benzo[d]imidazol-2-yl)methyl)amino)-6-((3-(piperazin-1-ylmethyl)phenyl)amino)-1,3,5-triazin-2-yl)amino)propanoate]
7 | > 250 | Cc1cc2nc(CN(C)c3nc(Nc4cccc(CN5CCN(S(=O)(=O)c6cnn(C)c6C)CC5)c4)nc(N[C@@H](Cc4ccc(C#N)cc4)C(=O)N(C)C)n3)[nH]c2cc1C [TA1073, (S)-3-(4-cyanophenyl)-2-((4-(((5,6-dimethyl-1H-benzo[d]imidazol-2-yl)methyl)(methyl)amino)-6-((3-((4-((1,5-dimethyl-1H-pyrazol-4-yl)sulfonyl)piperazin-1-yl)methyl)phenyl)amino)-1,3,5-triazin-2-yl)amino)-N,N-dimethylpropanamide]
8 | > 250 | CNc1nc(Nc2cccc(CN3CCN(C(=O)c4nccnc4O)CC3)c2)nc(N[C@@H](Cc2ccc(C#N)cc2)C(=O)OC)n1 [TA1035, methyl (S)-3-(4-cyanophenyl)-2-((4-((3-((4-(3-hydroxypyrazine-2-carbonyl)piperazin-1-yl)methyl)phenyl)amino)-6-(methylamino)-1,3,5-triazin-2-yl)amino)propanoate]
9 | > 250 | COC(=O)[C@H](Cc1ccc(C#N)cc1)Nc1nc(NCc2nccn2C)nc(Nc2cccc(CN3CCN(C(=O)c4nccnc4O)CC3)c2)n1 [TA1034, methyl (S)-3-(4-cyanophenyl)-2-((4-((3-((4-(3-hydroxypyrazine-2-carbonyl)piperazin-1-yl)methyl)phenyl)amino)-6-(((1-methyl-1H-imidazol-2-yl)methyl)amino)-1,3,5-triazin-2-yl)amino)propanoate]
10 | > 250 | COC(=O)[C@H](Cc1ccc(C#N)cc1)Nc1nc(NCc2nccn2C)nc(Nc2cccc(CN3CCNCC3)c2)n1 [TA1032, methyl (S)-3-(4-cyanophenyl)-2-((4-(((1-methyl-1H-imidazol-2-yl)methyl)amino)-6-((3-(piperazin-1-ylmethyl)phenyl)amino)-1,3,5-triazin-2-yl)amino)propanoate]
11 | > 250 | CNC(=O)[C@H](Cc1ccc(C#N)cc1)Nc1nc(NCc2nc3cc(F)ccc3[nH]2)nc(Nc2cccc(CN3CCNCC3)c2)n1 [TA1022, (S)-3-(4-cyanophenyl)-2-((4-(((5-fluoro-1H-benzo[d]imidazol-2-yl)methyl)amino)-6-((3-(piperazin-1-ylmethyl)phenyl)amino)-1,3,5-triazin-2-yl)amino)-N-methylpropanamide]
12 | > 250 | CN(C)C(=O)[C@H](Cc1ccc(C#N)cc1)Nc1nc(NCc2nc3cc(F)ccc3[nH]2)nc(Nc2cccc(CN3CCNCC3)c2)n1 [TA1013, (S)-3-(4-cyanophenyl)-2-((4-(((5-fluoro-1H-benzo[d]imidazol-2-yl)methyl)amino)-6-((3-(piperazin-1-ylmethyl)phenyl)amino)-1,3,5-triazin-2-yl)amino)-N,N-dimethylpropanamide]
13 | > 250 | COC(=O)[C@H](Cc1ccc(C#N)cc1)Nc1nc(Nc2cccc(CN3CCN(C(C)=O)CC3)c2)nc(N(Cc2nc3cc(F)ccc3[nH]2)C(C)=O)n1 [TA1076, methyl (S)-2-((4-((3-((4-acetylpiperazin-1-yl)methyl)phenyl)amino)-6-(N-((5-fluoro-1H-benzo[d]imidazol-2-yl)methyl)acetamido)-1,3,5-triazin-2-yl)amino)-3-(4-cyanophenyl)propanoate]
14 | > 250 | Cc1cc2nc(CN(C)c3nc(Nc4cccc(CN5CCNCC5)c4)nc(N[C@@H](Cc4ccc(C#N)cc4)C(=O)N(C)C)n3)[nH]c2cc1C [TA1014, (S)-3-(4-cyanophenyl)-2-((4-(((5,6-dimethyl-1H-benzo[d]imidazol-2-yl)methyl)(methyl)amino)-6-((3-(piperazin-1-ylmethyl)phenyl)amino)-1,3,5-triazin-2-yl)amino)-N,N-dimethylpropanamide]
15 | > 250 | COC(=O)[C@H](Cc1ccc(C#N)cc1)Nc1nc(NCc2nnn[nH]2)nc(Nc2cccc(CN3CCNCC3)c2)n1 [TA1068, methyl (S)-2-((4-(((1H-tetrazol-5-yl)methyl)amino)-6-((3-(piperazin-1-ylmethyl)phenyl)amino)-1,3,5-triazin-2-yl)amino)-3-(4-cyanophenyl)propanoate]
16 | > 250 | CN(C)C(=O)[C@H](Cc1ccc(C#N)cc1)Nc1nc(Cl)nc(Nc2cccc(CN3CCN(C(=O)OC(C)(C)C)CC3)c2)n1 [TA1008, tert-butyl (S)-4-(3-((4-chloro-6-((3-(4-cyanophenyl)-1-(dimethylamino)-1-oxopropan-2-yl)amino)-1,3,5-triazin-2-yl)amino)benzyl)piperazine-1-carboxylate]
17 | 20 to 250 | COC(=O)[C@H](Cc1ccc(C#N)cc1)Nc1nc(Nc2cccc(CN3CCNCC3)c2)nc(N(C)CCc2nc3ccc(OC)cc3[nH]2)n1 [TA1052, methyl (S)-3-(4-cyanophenyl)-2-((4-((2-(6-methoxy-1H-benzo[d]imidazol-2-yl)ethyl)(methyl)amino)-6-((3-(piperazin-d-ylmethyl)phenyl)amino)-1,3,5-triazin-2-yl)amino)propanoate]
